{"source": "patent EP4755885A1", "about": "(Shanghai Hansoh Biomedical Co., Ltd., priority 2023, dated 2025)", "key": {"[1]": {"test": "Pharmacokinetic evaluation in rats, oral administration", "parameters": "species or system SD rats", "details": "rat, in vivo, p.o. 5 mg/kg, plasma", "method": "SD rats were used as test animals to study the pharmacokinetic behavior of the following example compounds, administered orally at a dose of 5 mg/kg, in the plasma of the rats. SD rats, 3 per group, male. […] An example compound was weighed and added to a 4 mL glass bottle, and the solution was added. […] Sonication was performed for 10 min to obtain a colorless clear solution having a concentration of 0.5 mg/mL. […] The blood samples were placed in EDTA-K2 tubes and centrifuged at 6000 rpm at 4°C for 6 min to separate plasma, which was stored at -80°C. […] • Liquid phase conditions: Shimadzu LC-20AD pump • Mass spectrometry conditions: AB Sciex API 4000 mass spectrometer • Chromatographic column: phenomenex Gemiu 5 um C18 50 × 4.6 mm • Mobile phase: Solution A was 0.1% formic acid aqueous solution, and Solution B was methanol • Flow rate: 1.0 mL/min • Elution time: 0-4.0 min, the eluent was as follows: […] The results of the rat pharmacokinetic experiment are shown in the table below: Table 5: Pharmacokinetic parameters of oral administration of the compound of the present invention in rats"}, "[2]": {"test": "Pharmacokinetic evaluation in Macaca fascicularis monkeys, intravenous administration", "type": "in vivo", "details": "cynomolgus monkey, I.V. 0.2 mg/kg, plasma", "method": "Macaca fascicularis monkeys were used as test animals to study the pharmacokinetic behavior of the compound of the present invention, administered intravenously at a dose of 0.2 mg/kg, in Macaca fascicularis monkeys (plasma).\nMacaca fascicularis monkeys, 3 per group, male, Guangxi Xiongsen, Animal Production License No.: SCXK (Gui) 2021-0004).\nPreparation of drug for intravenous administration: 5%DMSO+10%Solutol HS15+85%PBS\nThe compound of the present invention was weighed. 5% DMSO was first added according to the proportion in the total volume, followed by vortexing and sonication for 2 min to achieve complete dissolution. Then 10% Solutol HS15 was added, followed by vortexing and sonication for 2 min to achieve complete dissolution. Finally, 85% PBS was added, followed by vortexing and sonication for 5 min and filtering through a 0.22 um filter membrane to obtain a colorless, transparent, clear solution having a concentration of 0.1 mg/mL.\nThree Macaca fascicularis monkeys, male, respectively administered I.V. after fasting overnight, at a dose of 0.2 mg/kg and in an administration volume of 2 mL/kg.\n0.5 mL of blood was collected from the forelimb vein of the Macaca fascicularis monkeys before administration and at 0.083, 0.25, 0.5, 1, 2, 4, 8, and 24 h after administration. The blood samples were placed in EDTA-K2 tubes and centrifuged at 6000 rpm at 4°C for 6 min to separate plasma, which was stored at -80°C.\n40 µL of a plasma sample was added with 160 µL of acetonitrile for precipitation, and after mixing, the mixture was centrifuged at 3500 × g for 5 to 20 min.\n100 µL of the supernatant solution after treatment was taken for LC/MS/MS analysis of the concentration of the test compound.\nLiquid phase condition: Shimadzu LC-20AD pump Mass spectrometry condition: AB Sciex API 4000 mass spectrometer Chromatographic column: phenomenex Gemiu 5 um C18 50 × 4.6 mm Mobile phase: Solution A was 0.1% formic acid aqueous solution, and Solution B was acetonitrile Flow rate: 0.8 mL/min Elution time: 0-4.0 min, the eluent was as follows:\nMain pharmacokinetic parameters were calculated using WinNonlin 8.2. The results of the Macaca fascicularis monkey pharmacokinetic experiment are shown in Table 8 below: Table 8: Pharmacokinetic parameters of injection administration of the compound of the present invention in Macaca fascicularis monkeys"}}, "data": [{"smiles": "[2H]C([2H])([2H])n1nc2c3c(c(-n4ccn(-c5c6c(nn5-c5cc(C)c(F)c(C)c5)CCN(C(=O)c5cc7cc([C@H]8CCOC(C)(C)C8)ccc7n5[C@@]5(c7noc(=O)[nH]7)C[C@@H]5C)[C@H]6C)c4=O)ccc31)OCCC2", "note": "[Example 282, 3-((1S,2S)-1-(5-((S)-2,2-dimethyltetrahydro-2H-pyran-4-yl)-2-((S)-2-(4-fluoro-3,5-dimethylphenyl)-4-methyl-3-(3-(2-(methyl-d3)-2,7,8,9-tetrahydrooxaheptano[4,3,2-cd]indazol-5-yl)-2-carbonyl-2,3-dihydro-1H-imidazol-1-yl)-4,5,6,7-tetrahydro-2H-pyrazolo[4,3-c]pyridine-5-carbonyl)-1H-indol-1-yl)-2-methylcyclopropyl)-1,2,4-oxadiazol-5(4H)-one]", "values": [{"measurement": "AUC(0-inf)", "setting": "[1]", "result": 13900, "unit": "ng·h/mL"}, {"measurement": "AUC(0-t) at 24 h", "setting": "[1]", "result": 12200, "unit": "ng·h/mL"}, {"measurement": "Cmax", "setting": "[1]", "result": 971, "unit": "ng/mL"}, {"measurement": "Tmax", "setting": "[1]", "result": 6, "unit": "h"}, {"measurement": "half-life", "setting": "[1]", "result": 7.3, "unit": "h"}, {"measurement": "MRT inf", "setting": "[1]; read-out: MRT 0-∞", "result": 12, "unit": "h"}, {"measurement": "AUC(0-inf)", "setting": "[2]", "result": 1930, "unit": "ng·h/mL"}, {"measurement": "AUC(0-t)", "setting": "[2]", "result": 1680, "unit": "ng·h/mL"}, {"measurement": "C0", "setting": "[2]", "result": 1080, "unit": "ng/mL"}, {"measurement": "half-life", "setting": "[2]", "result": 9.8, "unit": "h"}, {"measurement": "MRT inf", "setting": "[2]; read-out: MRT 0-∞", "result": 10.3, "unit": "h"}]}]}
